Values quoted from earlier work in patent US20210009750A1, “3D PRINTING COMPOSITION FOR BIOMATERIALS” (TISSIUM SA, priority 2018, published 2021).

Test system: mammalian cell types
Conditions: broad range of mammalian cell types and species

SMILES: CC(C)(O)C(=O)c1ccc(OCCO)cc1 [Irgacure 2959, 2-hydroxy-1-[4-(hydroxyethoxy)phenyl]-2-methyl-1-propanone]
- cytotoxicity (cell death): minimal cytotoxicity
